Key:
NCI-H1882 = assay: cells; assay type: functional, cell-based; conditions: Homo sapiens;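 also: growth inhibition of the cell line, determined with a viability assay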
Description: SANGER: Inhibition of human NCI-H1882 cell growth in a cell viability assay.

SW1710 = assay: cells; assay type: functional, cell-based; conditions: Homo sapiens;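 also: growth inhibition of SW1710 cells, determined with a cell viability assay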
Description: SANGER: Inhibition of human SW1710 cell growth in a cell viability assay.

MDA-MB-175-VII = assay: cells; assay type: functional, cell-based; conditions: Homo sapiens
8305C = assay: cells; assay type: functional, cell-based; conditions: Homo sapiens
Description: SANGER: Inhibition of human 8305C cell growth in a cell viability assay.

IST-SL2 = assay: cells; assay type: functional, cell-based; conditions: Homo sapiens;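 also: growth inhibition of human IST-SL2 cells, read out by a cell viability assay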
Description: SANGER: Inhibition of human IST-SL2 cell growth in a cell viability assay.

SW626 = assay: cells; assay type: functional, cell-based; conditions: Homo sapiens;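 also: growth inhibition of SW626 cells, measured with a cell viability assay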
Description: SANGER: Inhibition of human SW626 cell growth in a cell viability assay.

BC-3 = assay: cells; assay type: functional, cell-based; conditions: Homo sapiens;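 also: cell viability assay measuring growth inhibition of human BC-3 cells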
Description: SANGER: Inhibition of human BC-3 cell growth in a cell viability assay.

K052 = assay: cells; assay type: functional, cell-based; conditions: Homo sapiens;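 also: Read-out from a cell viability assay, IC50 reflecting suppression of K052 cell growth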
Description: SANGER: Inhibition of human K052 cell growth in a cell viability assay.

MDA-MB-157 = assay: cells; assay type: functional, cell-based; conditions: Homo sapiens
Description: SANGER: Inhibition of human MDA-MB-157 cell growth in a cell viability assay.

5637 = assay: cells; assay type: functional, cell-based; conditions: Homo sapiens
Description: SANGER: Inhibition of human 5637 cell growth in a cell viability assay.

CP50-MEL-B = assay: cells; assay type: functional, cell-based; conditions: Homo sapiens;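 also: growth inhibition of the human cell line, measured with a cell viability read-out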
Description: SANGER: Inhibition of human CP50-MEL-B cell growth in a cell viability assay.

NCI-H2052 = assay: cells; assay type: functional, cell-based; conditions: Homo sapiens;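 also: growth inhibition of NCI-H2052 cells, read out with a cell viability assay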
Description: SANGER: Inhibition of human NCI-H2052 cell growth in a cell viability assay.

LC4-1 = assay: cells; assay type: functional, cell-based; conditions: Homo sapiens;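 also: growth inhibition of LC4-1 cells, read out with a cell viability assay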
Description: SANGER: Inhibition of human LC4-1 cell growth in a cell viability assay.

COR-L23 = assay: cells; assay type: functional, cell-based; conditions: Homo sapiens;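 also: cell viability assay measuring how strongly compounds suppress growth of COR-L23 cells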
Description: SANGER: Inhibition of human COR-L23 cell growth in a cell viability assay.

8505C = assay: cells; assay type: functional, cell-based; conditions: Homo sapiens
Description: SANGER: Inhibition of human 8505C cell growth in a cell viability assay.

KYSE-70 cell line = assay: cells; assay type: functional, cell-based; conditions: Homo sapiens;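 also: cell viability assay read-out, with IC50 expressing suppression of KYSE-70 cell growth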
Description: SANGER: Inhibition of human KYSE-70 cell growth in a cell viability assay.

NCI-H748 = assay: cells; assay type: functional, cell-based; conditions: Homo sapiens;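 also: growth inhibition of NCI-H748 cells, measured by a cell viability assay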
Description: SANGER: Inhibition of human NCI-H748 cell growth in a cell viability assay.

EB-3 = assay: cells; assay type: functional, cell-based; conditions: Homo sapiens;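 also: human EB-3 cells, growth inhibition read out via a cell viability assay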
Description: SANGER: Inhibition of human EB-3 cell growth in a cell viability assay.

GCT = assay: cells; assay type: functional, cell-based; conditions: Homo sapiens;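 also: GCT cell line proliferation inhibition, read out with a cell viability assay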
Description: SANGER: Inhibition of human GCT cell growth in a cell viability assay.

MIA PaCa-2 = assay: cells; assay type: functional, cell-based; conditions: Homo sapiens;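 also: growth inhibition of MIA PaCa-2 cells, read out with a cell viability assay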
Description: SANGER: Inhibition of human MIA-PaCa-2 cell growth in a cell viability assay.

NCI-H1793 = assay: cells; assay type: functional, cell-based; conditions: Homo sapiens;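 also: cell growth inhibition, read out by a cell viability assay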
Description: SANGER: Inhibition of human NCI-H1793 cell growth in a cell viability assay.

MDA-MB-361 = assay: cells; assay type: functional, cell-based; conditions: Homo sapiens
KYSE-520 cell line = assay: cells; assay type: functional, cell-based; conditions: Homo sapiens;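 also: growth inhibition of human KYSE-520 cells, read out with a viability assay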
Description: SANGER: Inhibition of human KYSE-520 cell growth in a cell viability assay.

NCI-N87 = assay: cells; assay type: functional, cell-based; conditions: Homo sapiens;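 also: growth inhibition of human NCI-N87 cells, read out with a cell viability assay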
Description: SANGER: Inhibition of human NCI-N87 cell growth in a cell viability assay.

769-P = assay: cells; assay type: functional, cell-based; conditions: Homo sapiens
Description: SANGER: Inhibition of human 769-P cell growth in a cell viability assay.

T84 = assay: cells; assay type: functional, cell-based; conditions: Homo sapiens;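 also: growth inhibition measured with a cell viability readout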
Description: SANGER: Inhibition of human T84 cell growth in a cell viability assay.

MEL-JUSO = assay: cells; assay type: functional, cell-based; conditions: Homo sapiens;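 also: growth inhibition of human MEL-JUSO cells, read out with a cell viability assay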
Description: SANGER: Inhibition of human MEL-JUSO cell growth in a cell viability assay.

EB2 = assay: cells; assay type: functional, cell-based; conditions: Homo sapiens;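 also: growth inhibition of EB2 cells, read out with a cell viability assay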
Description: SANGER: Inhibition of human EB2 cell growth in a cell viability assay.

THP-1 = assay: cells; assay type: functional, cell-based; conditions: Homo sapiens;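 also: growth inhibition of THP-1 cells, read out via a cell viability assay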
Description: SANGER: Inhibition of human THP-1 cell growth in a cell viability assay.

NCI-H2030 = assay: cells; assay type: functional, cell-based; conditions: Homo sapiens;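 also: growth inhibition of human NCI-H2030 cells, read out by a cell viability assay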
Description: SANGER: Inhibition of human NCI-H2030 cell growth in a cell viability assay.

SKG-IIIa = assay: cells; assay type: functional, cell-based; conditions: Homo sapiens;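 also: cell growth inhibition, read out with a cell viability assay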
Description: SANGER: Inhibition of human SKG-IIIa cell growth in a cell viability assay.

DOK = assay: cells; assay type: functional, cell-based; conditions: Homo sapiens;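 also: cell viability assay read-out, values reflect inhibition of cell growth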
Description: SANGER: Inhibition of human DOK cell growth in a cell viability assay.

BXPC-3 = assay: cells; assay type: functional, cell-based; conditions: Homo sapiens;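 also: growth inhibition of human BxPC-3 cells, read out by a cell viability assay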
Description: SANGER: Inhibition of human BxPC-3 cell growth in a cell viability assay.

SK-MEL-24 = assay: cells; assay type: functional, cell-based; conditions: Homo sapiens;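 also: growth inhibition read out by a cell viability assay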
Description: SANGER: Inhibition of human SK-MEL-24 cell growth in a cell viability assay.

RD = assay: cells; assay type: functional, cell-based; conditions: Homo sapiens
Description: SANGER: Inhibition of human RD cell growth in a cell viability assay.

C32 = assay: cells; assay type: functional, cell-based; conditions: Homo sapiens;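 also: cell viability assay, with IC50 reflecting inhibition of C32 cell growth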
Description: SANGER: Inhibition of human C32 cell growth in a cell viability assay.

TGW = assay: cells; assay type: functional, cell-based; conditions: Homo sapiens;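 also: growth inhibition of human TGW cells, read out with a cell viability assay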
Description: SANGER: Inhibition of human TGW cell growth in a cell viability assay.

BPH-1 = assay: cells; assay type: functional, cell-based; conditions: Homo sapiens;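 also: cell viability assay measuring growth inhibition of human BPH-1 cells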
Description: SANGER: Inhibition of human BPH-1 cell growth in a cell viability assay.

FaDu = assay: cells; assay type: functional, cell-based; conditions: Homo sapiens;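 also: cell viability readout of growth inhibition in FaDu cells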
Description: SANGER: Inhibition of human FADU cell growth in a cell viability assay.

CaR-1 = assay: cells; assay type: functional, cell-based; conditions: Homo sapiens;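 also: growth inhibition of human CaR-1 cancer cells, read out with a cell viability assay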
Description: SANGER: Inhibition of human CaR-1 cell growth in a cell viability assay.

CMK = assay: cells; assay type: functional, cell-based; conditions: Homo sapiens;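 also: growth inhibition of CMK cells, read out as cell viability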
Description: SANGER: Inhibition of human CMK cell growth in a cell viability assay.

CWR22R = assay: cells; assay type: functional, cell-based; conditions: Homo sapiens, 22Rv1;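 also: growth inhibition of 22Rv1 cells, read out with a cell viability assay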
Description: SANGER: Inhibition of human 22RV1 cell growth in a cell viability assay.

PA-1 = assay: cells; assay type: functional, cell-based; conditions: Homo sapiens;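 also: IC50 for suppression of PA-1 cell proliferation, determined with a cell viability read-out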
Description: SANGER: Inhibition of human PA-1 cell growth in a cell viability assay.

OVCAR-5 = assay: cells; assay type: functional, cell-based; conditions: Homo sapiens;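 also: growth inhibition of human OVCAR-5 cells, read out with a cell viability assay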
Description: SANGER: Inhibition of human OVCAR-5 cell growth in a cell viability assay.

RPMI-2650 = assay: cells; assay type: functional, cell-based; conditions: Homo sapiens
Description: SANGER: Inhibition of human RPMI-2650 cell growth in a cell viability assay.

CAKI-1 = assay: cells; assay type: functional, cell-based; conditions: Homo sapiens;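 also: growth inhibition of CAKI-1 cells, measured by a cell viability assay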
Description: SANGER: Inhibition of human CAKI-1 cell growth in a cell viability assay.

NUGC-3 = assay: cells; assay type: functional, cell-based; conditions: Homo sapiens;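 also: growth inhibition of human NUGC-3 cells, read out with a cell viability assay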
Description: SANGER: Inhibition of human NUGC-3 cell growth in a cell viability assay.

LK-2 = assay: cells; assay type: functional, cell-based; conditions: Homo sapiens;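 also: growth inhibition of LK-2 cells, read out with a viability assay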
Description: SANGER: Inhibition of human LK-2 cell growth in a cell viability assay.

SK-MEL-28 = assay: cells; assay type: functional, cell-based; conditions: Homo sapiens;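 also: growth inhibition of human SK-MEL-28 cells, read out with a cell viability assay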
Description: SANGER: Inhibition of human SK-MEL-28 cell growth in a cell viability assay.

SW-620 = assay: cells; assay type: functional, cell-based; conditions: Homo sapiens;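 also: growth inhibition of human SW-620 cells, measured by a cell viability assay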
Description: SANGER: Inhibition of human SW620 cell growth in a cell viability assay.

A-375 = assay: cells; assay type: functional, cell-based; conditions: Homo sapiens;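 also: growth inhibition of A375 cells, read out with a cell viability assay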
Description: SANGER: Inhibition of human A375 cell growth in a cell viability assay.

ST486 = assay: SANGER: Inhibition of human ST486 cell growth in a cell viability assay.; assay type: functional, cell-based
Ca-Ski = assay: cells; assay type: functional, cell-based; conditions: Homo sapiens;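 also: cell viability assay measuring inhibition of Ca-Ski cell growth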
Description: SANGER: Inhibition of human Ca-Ski cell growth in a cell viability assay.

PANC-03-27 = assay: cells; assay type: functional, cell-based; conditions: Homo sapiens
Description: SANGER: Inhibition of human PANC-03-27 cell growth in a cell viability assay.

CAL-12T = assay: cells; assay type: functional, cell-based, Homo sapiens; conditions: Homo sapiens, CAL-12T;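 also: growth inhibition of human CAL-12T cells, read out with a cell viability assay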
Description: SANGER: Inhibition of human CAL-12T cell growth in a cell viability assay.

OAW-42 = assay: cells; assay type: functional, cell-based; conditions: Homo sapiens;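 also: growth inhibition of OAW-42 cells, read out with a cell viability assay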
Description: SANGER: Inhibition of human OAW-42 cell growth in a cell viability assay.

NCI-H2122 = assay: cells; assay type: functional, cell-based; conditions: Homo sapiens;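 also: growth inhibition of the cells, read out with a cell viability assay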
Description: SANGER: Inhibition of human NCI-H2122 cell growth in a cell viability assay.

MCF7 = assay: cells; assay type: functional, cell-based; conditions: Homo sapiens;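 also: growth inhibition of human MCF7 cells, read out with a cell viability assay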
Description: SANGER: Inhibition of human MCF7 cell growth in a cell viability assay.

TALL-1 = assay: cells; assay type: functional, cell-based; conditions: Homo sapiens;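 also: growth inhibition of cultured human TALL-1 cells, read out by a cell viability assay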
Description: SANGER: Inhibition of human TALL-1 cell growth in a cell viability assay.

SF-295 = assay: cells; assay type: functional, cell-based; conditions: Homo sapiens;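 also: growth inhibition of SF-295 cells, read out with a cell viability assay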
Description: SANGER: Inhibition of human SF295 cell growth in a cell viability assay.

RERF-LC-MS = assay: cells; assay type: functional, cell-based; conditions: Homo sapiens;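 also: growth inhibition of human RERF-LC-MS cells, read out by a cell viability assay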
Description: SANGER: Inhibition of human RERF-LC-MS cell growth in a cell viability assay.

UMC-11 = assay: cells; assay type: functional, cell-based; conditions: Homo sapiens
Description: SANGER: Inhibition of human UMC-11 cell growth in a cell viability assay.

RPMI-6666 = assay: cells; assay type: functional, cell-based; conditions: Homo sapiens
Description: SANGER: Inhibition of human RPMI-6666 cell growth in a cell viability assay.

For `CC(O)(CS(=O)(=O)c1ccc(F)cc1)C(=O)Nc1ccc(C#N)c(C(F)(F)F)c1` (stereo unspecified) [BICALUTAMIDE], the IC50 (NCI-H1882) was > 1020 nM, the IC50 (SW1710) was > 1020 nM and the IC50 (MDA-MB-175-VII) was > 1020 nM. For the same molecule, the IC50 (8305C) was > 1020 nM, the IC50 (IST-SL2) was > 1020 nM and the IC50 (SW626) was > 1020 nM. For the same molecule, the IC50 (BC-3) was > 1020 nM, the IC50 (K052) was > 1020 nM and the IC50 (MDA-MB-157) was > 1020 nM. The IC50 5637 was > 1020 nM, the IC50 (CP50-MEL-B) was > 1020 nM and the IC50 (NCI-H2052) was > 1020 nM. For the same molecule, the IC50 (LC4-1) was > 1020 nM, the IC50 (COR-L23) was > 1020 nM and the IC50 (8505C) was > 1020 nM. The IC50 (KYSE-70 cell line) was > 1020 nM, the IC50 (NCI-H748) was > 1020 nM and the IC50 (EB-3) was > 1020 nM. The IC50 (GCT) was > 1020 nM, the IC50 (MIA PaCa-2) was > 1020 nM and the IC50 (NCI-H1793) was > 1020 nM. The IC50 (MDA-MB-361) was > 1020 nM, the IC50 (KYSE-520 cell line) was > 1020 nM and the IC50 (NCI-N87) was > 1020 nM. For the same molecule, the IC50 (769-P) was > 1020 nM, the IC50 (T84) was > 1020 nM and the IC50 (MEL-JUSO) was > 1020 nM. For the same molecule, the IC50 (EB2) was > 1020 nM, the IC50 (THP-1) was > 1020 nM and the IC50 (NCI-H2030) was > 1020 nM. The IC50 (SKG-IIIa) was > 1020 nM, the IC50 (DOK) was > 1020 nM and the IC50 (BXPC-3) was > 1020 nM. The IC50 (SK-MEL-24) was > 1020 nM, the IC50 (RD) was > 1020 nM and the IC50 (C32) was > 1020 nM. The IC50 (TGW) was > 1020 nM, the IC50 (BPH-1) was > 1020 nM and the IC50 (FaDu) was > 1020 nM. For the same molecule, the IC50 (CaR-1) was > 1020 nM, the IC50 (CMK) was > 1020 nM and the IC50 (CWR22R) was > 1020 nM. For the same molecule, the IC50 (PA-1) was > 1020 nM, the IC50 (OVCAR-5) was > 1020 nM and the IC50 (RPMI-2650) was > 1020 nM. For the same molecule, the IC50 (CAKI-1) was > 1020 nM, the IC50 (NUGC-3) was > 1020 nM and the IC50 (LK-2) was > 1020 nM. For the same molecule, the IC50 (SK-MEL-28) was > 1020 nM, the IC50 (SW-620) was > 1020 nM and the IC50 (A-375) was > 1020 nM. For the same molecule, the IC50 (ST486) was > 1020 nM, the IC50 (Ca-Ski) was > 1020 nM and the IC50 (PANC-03-27) was > 1020 nM. The IC50 (CAL-12T) was > 1020 nM, the IC50 (OAW-42) was > 1020 nM and the IC50 (NCI-H2122) was > 1020 nM. For the same molecule, the IC50 (MCF7) was > 1020 nM, the IC50 (TALL-1) was > 1020 nM and the IC50 (SF-295) was > 1020 nM. For the same molecule, the IC50 (RERF-LC-MS) was > 1020 nM, the IC50 (UMC-11) was > 1020 nM and the IC50 (RPMI-6666) was > 1020 nM.

For `N#C/C(=C1/Nc2ccccc2S1)c1ccnc(NCCc2cccnc2)n1`, the IC50 (NCI-H1882) was > 8000 nM, the IC50 (SW1710) was 1590 nM and the IC50 (MDA-MB-175-VII) was > 8000 nM. For the same molecule, the IC50 (8305C) was > 8000 nM, the IC50 (IST-SL2) was > 8000 nM and the IC50 (SW626) was 5870 nM. For the same molecule, the IC50 (BC-3) was 7460 nM, the IC50 (K052) was > 8000 nM and the IC50 (MDA-MB-157) was 7070 nM. For the same molecule, the IC50 5637 was > 8000 nM, the IC50 (CP50-MEL-B) was > 8000 nM and the IC50 (NCI-H2052) was > 8000 nM. For the same molecule, the IC50 (LC4-1) was 7650 nM, the IC50 (COR-L23) was > 8000 nM and the IC50 (8505C) was 2900 nM. For the same molecule, the IC50 (KYSE-70 cell line) was 4060 nM, the IC50 (NCI-H748) was > 8000 nM and the IC50 (EB-3) was > 8000 nM. For the same molecule, the IC50 (GCT) was 3600 nM, the IC50 (MIA PaCa-2) was 976 nM and the IC50 (NCI-H1793) was > 8000 nM. For the same molecule, the IC50 (MDA-MB-361) was 6490 nM, the IC50 (KYSE-520 cell line) was > 8000 nM and the IC50 (NCI-N87) was > 8000 nM. For the same molecule, the IC50 (769-P) was > 8000 nM, the IC50 (T84) was 3860 nM and the IC50 (MEL-JUSO) was 3650 nM. For the same molecule, the IC50 (EB2) was > 8000 nM, the IC50 (THP-1) was 5330 nM and the IC50 (NCI-H2030) was > 8000 nM. The IC50 (SKG-IIIa) was > 8000 nM, the IC50 (DOK) was > 8000 nM and the IC50 (BXPC-3) was 1860 nM. The IC50 (SK-MEL-24) was > 8000 nM, the IC50 (RD) was > 8000 nM and the IC50 (C32) was > 8000 nM. For the same molecule, the IC50 (TGW) was > 8000 nM, the IC50 (BPH-1) was > 8000 nM and the IC50 (FaDu) was > 8000 nM. The IC50 (CaR-1) was > 8000 nM, the IC50 (CMK) was 2750 nM and the IC50 (CWR22R) was > 8000 nM. The IC50 (PA-1) was 1530 nM, the IC50 (OVCAR-5) was > 8000 nM and the IC50 (RPMI-2650) was 2580 nM. The IC50 (CAKI-1) was 6480 nM, the IC50 (NUGC-3) was > 8000 nM and the IC50 (LK-2) was 6530 nM. The IC50 (SK-MEL-28) was > 8000 nM, the IC50 (SW-620) was > 8000 nM and the IC50 (A-375) was > 8000 nM. For the same molecule, the IC50 (ST486) was 1740 nM, the IC50 (Ca-Ski) was > 8000 nM and the IC50 (PANC-03-27) was 2900 nM. It also gave an IC50 (CAL-12T) of 1300 nM, an IC50 (OAW-42) of 7700 nM and an IC50 (NCI-H2122) of 672 nM. The IC50 (MCF7) was 1500 nM, the IC50 (TALL-1) was > 8000 nM and the IC50 (SF-295) was 3040 nM. For the same molecule, the IC50 (RERF-LC-MS) was > 8000 nM, the IC50 (UMC-11) was > 8000 nM and the IC50 (RPMI-6666) was > 8000 nM.
